Reference: patent US7132286B2, “Method for neural stem cell differentiation using valproate” (Psychiatric Genomics, Inc., priority 2001, dated 2006)

Legend:
rat cortical stem cells [1] = test: Neuronal differentiation of rat cortical stem cells (β-tubulin III immunofluorescence, cell counting); format: cell-based; conditions: rat cortical stem cells; for effect on neuronal differentiation (percentage of β-tubulin-III expressing cells) in words: 6 days, vs control; for percentage of β-tubulin III expressing neurons (mean+SD): daily treatment 6 days, 10 ng/ml BDNF, 20 ng/ml NT-3, untreated control 6.2+1.8%
Text: Isolation of cortical and striatal stem cells. Timed pregnant Sprague Dawley rats were obtained from Taconic at embryonic age E14–E15 were sacrificed by inhalation of excess carbon dioxide. The abdomen of the rat was cleaned with 70% ethanol and the uterus was removed quickly and aseptically on the bench top. The uterus was placed in ice cold HBSS (GIBCO Cat. #20012-027) in a 10 cm petridish. After rinsing the uterus in PBS, embryos were removed from the uterus, rinsed in HBSS and collected in cold HBSS (buffered with HEPES and sodium bicarbonate) in a 10 cm petridish and placed on ice.
Plating, expansion and passaging of cortical and striatal stem cells. A generous amount of the triturated cell suspension was left in the original 15 ml tube to avoid fibroblast contamination in cultures. About 4–5 ml of the 6 ml of cells suspension was used for plating. Cells were plated at a concentration of 1.3×10^3 cells to 3.0×10^3 per cm^2 in 100 mm dish. This culture is designated P0 (passage 0).
(§1) Following plating cells were expanded for about 3–4 days (Passage 1, P1). Cells were treated daily with 10 ng/ml bFGF. The cultures were never permitted to reach more than 70% confluency. Cultures were then passaged as follows: 10 ml of HBSS without Ca^2+ and Mg^2+ was added to each 100 mm dish and the cells incubated at 37° C. for 5–15 minutes, or until sufficient numbers of the stem cells were rounded up. It is not expected that all cells in the culture will round up as there are several cell types in the culture at P0. The pH of the HBSS should be neutral at all times during this incubation. Cells were then removed from the dish by pipetting with a 5 ml pipette, and collected in a 15 or 50 ml conical tube, and centrifuged at 1000 g for 5 minutes. Cells were gently re-suspended in medium, counted, and plated at a density of 1×10^6 cells in 10 cm dishes and expanded for about 2 days in bFGF (Passage 1, P1). At that time the cells were passaged as described and plated onto pre-coated poly-L-ornithine/fibronectin vessels at concentrations indicated below for each experiment. Cells were treated with bFGF for 2 additional days. Before each treatment the bFGF was removed from the cells by washing twice with DMEM/F 12 to induce cell differentiation. For neurite outgrowth experiments, cells were seeded at 5×10^3 cells/well in 24-well plates and treated immediately.
(§2) Drug treatment. For immunofluorescence and Western analysis, cells were treated daily with either 0.5 mM of valproate (Sigma), 10 ng/ml of BDNF (R & D Systems), 20 ng/ml of NT-3 (R & D Systems), 1 nM 9cis retinoic acid (Sigma) or a dilution of NCM for 6 or 7 days. In some experiments valproate was also added with NCM and/or 9cis RA for 7 days. For human stem cell experiments, valproate (0.5 mM) or BDNF (25 ng/ml) was added for 9 days. For neurite outgrowth experiments, cells were treated for 1 day with 0.5 mM valproate or 50 ng/ml of BDNF. Where applicable, medium was changed every 2 days. After about 5–10 days, preferably on day 6 (i.e., after 6 days of drug exposure) the cells were fixed with a 4% solution of para-formaldehyde (PFA) in PBS, prepared as follows:
Immunofluorescent staining and visualization. Cells were plated at 20,000 cells/well in poly-L-ornithine/fibronectin (1 mg/ml) coated 24-well plates. After fixation, the PBS was aspirated from the fixed cells and the cells were treated with blocking solution (10% normal goat serum-NGS-Jackson Labs), 0.3% Triton-Sigma, in PBS) to saturate non-specific sites and permeabilize the cells. […]

[2] = literature; cited from earlier work
[3] = literature; cited from earlier work; remark: listed apart in the source
rat cortical stem cells [4] = test: Neurite outgrowth of neurons derived from rat cortical stem cells (ArrayScan neurite outgrowth index); format: cell-based; conditions: 1 day; 0.5 mM valproate, 50 ng/ml BDNF; control 35.1+0.3
Description: as §1, with “At that time the cells were passaged as described and plated onto pre-coated poly-L-ornithine/fibronectin vessels at concentrations indicated below for each experiment. Cells were treated with bFGF for 2 additional days. Before each treatment the bFGF was removed from the cells by washing twice with DMEM/F 12 to induce cell differentiation. For neurite outgrowth experiments, cells were seeded at 5×10^3 cells/well in 24-well plates and treated immediately.” left out
For analysis of neurite outgrowth, digital images were taken with an ArrayScan HCS System (Cellomics, Pa.) of 100 cells/well treated with valproate (0.5 mM) and BDNF (50 ng/ml) for 1 day. […] Neurite outgrowth index is defined as the percentage of cells whose neurites total more than 20 μm in length, and is calculated using Cellomics' Neurite Outgrowth application.

[5] = system: human striatal stem cells (line 161); test: Neuronal differentiation of human striatal stem cells (β tubulin III neurons, total cells); format: cell-based; conditions: 9 days, 0.5 mM valproate, BDNF 25 ng/ml, untreated control 40%
Description: Expansion and differentiation of striatal human stem cells. Human stem cells were provided from ReNeuron Inc. (U.K.). Striatum was obtained after 6 to 12 weeks of gestation from routine legal abortion. Cell line was provided by ReNeuron at passage 16. The stem cells were expanded in untreated 25 cm^2 tissue culture flasks (Nunc, USA) in the presence of 20 ng/ml and 10 ng/ml of human recombinant EGF and bFGF respectively, in NSA basal serum-free medium (Euroclone, U.K). Fresh medium and growth factors were added every 3 days. In these conditions stem cells were growing as floating neurospheres. After 4 weeks, the neurospheres were harvested, treated with a mild papain treatment in HBSS and dissociated into a single cell suspension. Cells were counted and viability was estimated by trypan blue exclusion method. Cells were differentiated by growth factors removal. The cells were plated in NSA medium at 20,000 cells/well on LabTek permanox culture slides of 8 wells precoated with laminin (1 μg/ml). Cells were treated with valproate and BDNF for 9 days at 37° C. and a saturated humidified atmosphere of 5% CO2, 1% O2 and 94% N2. Fresh medium and re-treatment with factors was performed every 3 days.
as §2
Immunofluorescent staining and visualization. Cells were plated at 20,000 cells/well in poly-L-ornithine/fibronectin (1 mg/ml) coated 24-well plates. […]
For counting, three to five different fields of interest at magnification 10× or 20× were chosen randomly. For immunofluorescence, 3 different black and white pictures were taken by field of interest with a digital camera CoolSnap Fx (Princeton) corresponding to the exposure of Cy2, Cy3 and Hoechst fluorescence. […] The percentage of neurons, astrocytes and GABAergic cells was determined by comparing the number of cells immunopositive for β-tubulin III, GFAP and GABA to the number of bis-benzamide stained nuclei (i.e., total cell number). […]

Molecule | effect on proliferation and differentiation [2] | teratogenic activity [3] | further results
CC1=C(/C=C/C(C)=C\C=C\C(C)=C\C(=O)O)C(C)(C)CCC1 [9-cis RA, 9-cis retinoic acid] | – | – | neuronal differentiation compared to control, in words (rat cortical stem cells [1]; daily treatment 7 days, 0.5 mM valproate, 0.5× NCM, 1 nM 9-cis RA): increased the neuronal differentiation
CCC=C(CCC)C(=O)O [2-en-valproate] | have not been shown to affect differentiation | Non-teratogenic | –
CCCCC(CCC)C(=O)O (stereo not drawn) [2-propylhexanoic acid] | inhibit proliferation and enhance differentiation | in vivo teratogenic activity | –
CCCCC(CCCC)C(=O)O [2-butylhexnoic acid] | inhibit proliferation and enhance differentiation | in vivo teratogenic activity | –
CCCCC(CC)C(=O)O (stereo not drawn) [2-ethylhexanoic acid] | inhibit proliferation and enhance differentiation | in vivo teratogenic activity | –
CCCC(CC(C)C)C(=O)O (stereo not drawn) [4 methyl-valproate] | have not been shown to affect differentiation | Non-teratogenic | –
C#CCC(CCC)C(=O)O (stereo not drawn) [R-4-yn-valproate] | have not been shown to affect differentiation | Non-teratogenic | –
C#CC[C@H](CCC)C(=O)O [(s)-4-yn-valproate] | inhibit proliferation and enhance differentiation | in vivo teratogenic activity | –
BDNF: brain-derived neurotrophic factor (R & D Systems), known promoter of neural stem cell differentiation (protein, UniProt P23560 19-247, looked up) Neurotrophic factor BDNF …: APMKEANIRGQGGLAYPGVRTHGTLESVNGPKAGSRGLTSLADTFEHVIEELLDEDQKVRPNEENNKDADLYTSRVMLSSQVPLEPPLLFLLEEYKNYLDAANMSMRVRRHSDPARRGELSVCDSISEWVTAADKKTAVDMSGGTVTVLEKVPVSKGQLKQYFYETKCNPMGYTKEGCRGIDKRHWNSQCRTTQSYVRALTMDSKKRIGWRFIRIDTSCVCTLTIKRGR | – | – | neurite index (percentage of cells whose neurites total more than 20 μm in length) (rat cortical stem cells [4]): 38.3+1; effect on neuronal differentiation (percentage of β-tubulin-III expressing cells) in words (rat cortical stem cells [1]): increased the percentage of β-tubulin-III expressing cells over control but was less effective than valproate; percentage of β-tubulin III expressing neurons (mean+SD) (rat cortical stem cells [1]; 0.5 mM valproate): 12.7+2%; neuronal differentiation [5]: 58%
NT-3: Neurotrophin-3 (R & D Systems) (protein, UniProt P20783 139-257, looked up) Neurotrophin-3: YAEHKSHRGEYSVCDSESLWVTDKSSAIDIRGHQVTVLGEIKTGNSPVKQYFYETRCKEARPVKNGCRGIDDKHWNSQCKTSQTYVRALTSENNKLVGWRWIRIDTSCVCALSRKIGRT | – | – | effect on neuronal differentiation (percentage of β-tubulin-III expressing cells) in words (rat cortical stem cells [1]): didn't have any effect; percentage of β-tubulin III expressing neurons (mean+SD) (rat cortical stem cells [1]; 0.5 mM valproate): 8+1%
